Measured values taken from ChEMBL document CHEMBL1138025, “Nocathiacin I analogues: synthesis, in vitro and in vivo biological activity of novel semi-synthetic thiazolyl peptide antibiotics” (Bioorg Med Chem Lett, 2004).
In brackets after ≈: the same amount, converted by molar mass.

What was measured:
Streptococcus pneumoniae = test: In vitro antibacterial activity against penicillin-resistant Streptococcus pneumoniae A28272; type: functional
Enterococcus faecalis = test: In vitro antibacterial activity against methicillin-sensitive Enterococcus faecalis A20688; type: functional
[1] = Equilibrium water solubility at pH 3.9; type: physicochemical
Staphylococcus aureus = test: In vitro antibacterial activity against methicillin-sensitive Staphylococcus aureus A15090; type: functional
Mus musculus [2] = test: In vivo efficacy (PD50) against lethal Staphylococcus aureus systemic infection model in mice; type: functional; conditions: read-out: PD50
[3] = Equilibrium water solubility at pH 3.2; type: physicochemical
[4] = Equilibrium water solubility at pH 3.3; type: physicochemical
[5] = Equilibrium water solubility at pH 2.7; type: physicochemical
[6] = Equilibrium water solubility at pH 2.6; type: physicochemical
[7] = Equilibrium water solubility at pH 3.8; type: physicochemical
[8] = target: Neuronal acetylcholine receptor; alpha4/beta2 (Rattus norvegicus, UniProt P09483+P12390); test: Inhibition of [3H]- cytisine binding to Nicotinic acetylcholine receptor alpha4-beta2 of rat cortical membranes; type: cell membranes, Membrane
Mus musculus [9] = species: Mus musculus; test: Effective concentration showing antinociception activity was determined by tail flick test in mouse; type: functional, organism-based
[10] = Equilibrium water solubility at pH 2.8; type: physicochemical
[11] = Equilibrium water solubility at pH 3.5; type: physicochemical
[12] = Equilibrium water solubility at pH 4.0; type: physicochemical
[13] = Equilibrium water solubility at pH 2.9; type: physicochemical

Chain of Neuronal acetylcholine receptor; alpha4/beta2 (P09483 whole entry): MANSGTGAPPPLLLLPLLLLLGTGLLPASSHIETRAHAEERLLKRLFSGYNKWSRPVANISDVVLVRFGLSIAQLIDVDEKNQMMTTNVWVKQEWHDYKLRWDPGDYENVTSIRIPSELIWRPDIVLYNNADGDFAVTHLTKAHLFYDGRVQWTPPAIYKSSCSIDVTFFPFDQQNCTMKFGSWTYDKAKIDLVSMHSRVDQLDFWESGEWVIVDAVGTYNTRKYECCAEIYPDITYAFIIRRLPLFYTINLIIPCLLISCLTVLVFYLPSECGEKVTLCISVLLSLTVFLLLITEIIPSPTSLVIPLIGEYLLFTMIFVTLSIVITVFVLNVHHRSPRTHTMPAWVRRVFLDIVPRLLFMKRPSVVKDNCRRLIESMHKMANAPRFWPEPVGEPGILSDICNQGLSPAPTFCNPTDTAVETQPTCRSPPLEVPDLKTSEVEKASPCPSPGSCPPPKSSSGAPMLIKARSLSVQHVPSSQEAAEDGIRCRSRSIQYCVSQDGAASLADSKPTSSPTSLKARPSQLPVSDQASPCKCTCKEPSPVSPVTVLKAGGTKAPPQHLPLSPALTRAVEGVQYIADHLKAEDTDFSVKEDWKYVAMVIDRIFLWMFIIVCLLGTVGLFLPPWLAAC
Chain of Neuronal acetylcholine receptor; alpha4/beta2 (P12390 whole entry): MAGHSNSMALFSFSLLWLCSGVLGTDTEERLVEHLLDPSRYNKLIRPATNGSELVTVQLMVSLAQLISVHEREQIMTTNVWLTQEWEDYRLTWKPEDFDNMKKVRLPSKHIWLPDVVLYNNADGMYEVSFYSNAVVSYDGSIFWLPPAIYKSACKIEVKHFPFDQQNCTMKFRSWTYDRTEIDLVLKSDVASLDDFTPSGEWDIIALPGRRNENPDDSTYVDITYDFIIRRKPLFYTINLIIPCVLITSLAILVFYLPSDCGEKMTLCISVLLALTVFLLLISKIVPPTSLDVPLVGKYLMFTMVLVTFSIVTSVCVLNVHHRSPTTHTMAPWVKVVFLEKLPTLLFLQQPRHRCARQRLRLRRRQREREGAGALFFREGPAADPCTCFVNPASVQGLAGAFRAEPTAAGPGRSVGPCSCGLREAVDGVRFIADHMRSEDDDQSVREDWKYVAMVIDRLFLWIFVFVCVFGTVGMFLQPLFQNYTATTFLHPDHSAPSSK

Structure (SMILES)	MIC (Streptococcus pneumoniae) [mg/L]	MIC (Enterococcus faecalis) [mg/L]	MIC (Staphylococcus aureus) [mg/L]	ED50 (Mus musculus [2]) [mg/kg]	further results
CO/C(C)=C1/NC(=O)[C@H]([C@@H](C)O)NC(=O)c2csc(n2)-c2cc(O)c(-c3nc(C(=O)NC(CN(C)CCCn4ccnc4)C(N)=O)cs3)nc2-c2csc(n2)[C@@H]2COC(=O)c3c4c5c(cccc5n3O)COC(=O)[C@@H](O[C@H]3C[C@](C)(O)[C@H](N(C)C)[C@H](C)O3)[C@@H](OC4)[C@H](NC(=O)c3csc1n3)c1nc(cs1)C(=O)N2 (stereo partly specified)	0.01 (≈ 0.00634 µM)	0.12 (≈ 0.0761 µM)	0.12 (≈ 0.0761 µM)	5	solubility thermodynamic [1]: > 10.6 mg/mL
CO/C(C)=C1/NC(=O)[C@H]([C@@H](C)O)NC(=O)c2csc(n2)-c2cc(O)c(-c3nc(C(=O)NC(CNCCOCCOCCOCCN)C(N)=O)cs3)nc2-c2csc(n2)[C@@H]2COC(=O)c3c4c5c(cccc5n3O)COC(=O)[C@@H](O[C@H]3C[C@](C)(O)[C@H](N(C)C)[C@H](C)O3)[C@@H](OC4)[C@H](NC(=O)c3csc1n3)c1nc(cs1)C(=O)N2 (stereo partly specified)	0.25 (≈ 0.153 µM)	1 (≈ 0.614 µM)	1 (≈ 0.614 µM)	> 10	solubility thermodynamic [3]: > 2.8 mg/mL
CO/C(C)=C1/NC(=O)[C@H]([C@@H](C)O)NC(=O)c2csc(n2)-c2cc(O)c(-c3nc(C(=O)NC(CN4CCN(CC(=O)O)CC4)C(N)=O)cs3)nc2-c2csc(n2)[C@@H]2COC(=O)c3c4c5c(cccc5n3O)COC(=O)[C@@H](O[C@H]3C[C@](C)(O)[C@H](N(C)C)[C@H](C)O3)[C@@H](OC4)[C@H](NC(=O)c3csc1n3)c1nc(cs1)C(=O)N2 (stereo partly specified)	0.03 (≈ 0.019 µM)	1 (≈ 0.632 µM)	1 (≈ 0.632 µM)	> 10	solubility thermodynamic [4]: > 2.6 mg/mL
CO/C(C)=C1/NC(=O)[C@H]([C@@H](C)O)NC(=O)c2csc(n2)-c2cc(O)c(-c3nc(C(=O)NC(CN(C)C)C(N)=O)cs3)nc2-c2csc(n2)[C@@H]2COC(=O)c3c4c5c(cccc5n3O)COC(=O)[C@@H](O[C@H]3C[C@](C)(O)[C@H](N(C)C)[C@H](C)O3)[C@@H](OC4)[C@H](NC(=O)c3csc1n3)c1nc(cs1)C(=O)N2 (stereo partly specified)	0.03 (≈ 0.0202 µM)	0.12 (≈ 0.0809 µM)	0.06 (≈ 0.0405 µM)	< 0.62	solubility thermodynamic [4]: > 10 mg/mL
CO/C(C)=C1/NC(=O)[C@H]([C@@H](C)O)NC(=O)c2csc(n2)-c2cc(O)c(-c3nc(C(=O)NC(CN4CCN(C(C)=O)CC4)C(N)=O)cs3)nc2-c2csc(n2)[C@@H]2COC(=O)c3c4c5c(cccc5n3O)COC(=O)[C@@H](O[C@H]3C[C@](C)(O)[C@H](N(C)C)[C@H](C)O3)[C@@H](OC4)[C@H](NC(=O)c3csc1n3)c1nc(cs1)C(=O)N2 (stereo partly specified)	0.03 (≈ 0.0192 µM)	2 (≈ 1.28 µM)	0.5 (≈ 0.319 µM)	5	solubility thermodynamic [5]: > 2.4 mg/mL
CNCCNCC(NC(=O)c1csc(-c2nc3c(cc2O)-c2nc(cs2)C(=O)N[C@@H]([C@@H](C)O)C(=O)N/C(=C(\C)OC)c2nc(cs2)C(=O)N[C@@H]2c4nc(cs4)C(=O)N[C@@H](COC(=O)c4c5c6c(cccc6n4O)COC(=O)[C@@H](O[C@H]4C[C@](C)(O)[C@H](N(C)C)[C@H](C)O4)[C@H]2OC5)c2nc-3cs2)n1)C(N)=O (stereo partly specified)	0.03 (≈ 0.0198 µM)	0.5 (≈ 0.331 µM)	0.25 (≈ 0.165 µM)	–	solubility thermodynamic [6]: > 2.5 mg/mL
CO/C(C)=C1/NC(=O)C([C@@H](C)O)NC(=O)c2csc(n2)-c2cc(O)c(-c3nc(C(=O)NC(CNCCCn4ccnc4)C(N)=O)cs3)nc2-c2csc(n2)[C@@H]2COC(=O)c3c4c5c(cccc5n3O)COC(=O)[C@@H](O[C@H]3C[C@](C)(O)[C@H](N(C)C)[C@H](C)O3)[C@@H](OC4)[C@H](NC(=O)c3csc1n3)c1nc(cs1)C(=O)N2 (stereo partly specified)	0.06 (≈ 0.0384 µM)	1 (≈ 0.64 µM)	0.5 (≈ 0.32 µM)	10	solubility thermodynamic [3]: > 10 mg/mL
CO/C(C)=C1/NC(=O)[C@H]([C@@H](C)O)NC(=O)c2csc(n2)-c2cc(O)c(-c3nc(C(=O)NC(CN4CCC(O)CC4)C(N)=O)cs3)nc2-c2csc(n2)[C@@H]2COC(=O)c3c4c5c(cccc5n3O)COC(=O)[C@@H](O[C@H]3C[C@](C)(O)[C@H](N(C)C)[C@H](C)O3)[C@@H](OC4)[C@H](NC(=O)c3csc1n3)c1nc(cs1)C(=O)N2 (stereo partly specified)	0.007 (≈ 0.00455 µM)	0.25 (≈ 0.162 µM)	0.06 (≈ 0.039 µM)	2.1	solubility thermodynamic [7]: > 2.7 mg/mL
Clc1ccc(C2CC3CCC2CN3)cn1 (stereo unspecified)	–	–	–	–	Ki [8]: 0.34 nM; EC50 (Mus musculus [9]): 1.4 mg/kg
CO/C(C)=C1/NC(=O)[C@H]([C@@H](C)O)NC(=O)c2csc(n2)-c2cc(O)c(-c3nc(C(=O)NC(CNCCN4CCN(C)CC4)C(N)=O)cs3)nc2-c2csc(n2)[C@@H]2COC(=O)c3c4c5c(cccc5n3O)COC(=O)[C@@H](O[C@H]3C[C@](C)(O)[C@H](N(C)C)[C@H](C)O3)[C@@H](OC4)[C@H](NC(=O)c3csc1n3)c1nc(cs1)C(=O)N2 (stereo partly specified)	0.01 (≈ 0.00633 µM)	4 (≈ 2.53 µM)	0.25 (≈ 0.158 µM)	> 10	solubility thermodynamic [10]: > 2.9 mg/mL
CO/C(C)=C1/NC(=O)[C@H]([C@@H](C)O)NC(=O)c2csc(n2)-c2cc(O)c(-c3nc(C(=O)NC(CN(C)CCC(=O)Nc4ccncc4)C(N)=O)cs3)nc2-c2csc(n2)[C@@H]2COC(=O)c3c4c5c(cccc5n3O)COC(=O)[C@@H](O[C@H]3C[C@](C)(O)[C@H](N(C)C)[C@H](C)O3)[C@@H](OC4)[C@H](NC(=O)c3csc1n3)c1nc(cs1)C(=O)N2 (stereo partly specified)	0.03 (≈ 0.0186 µM)	0.5 (≈ 0.309 µM)	0.5 (≈ 0.309 µM)	8.7	solubility thermodynamic [10]: > 3 mg/mL
CO/C(C)=C1/NC(=O)[C@H]([C@@H](C)O)NC(=O)c2csc(n2)-c2cc(O)c(-c3nc(C(=O)NC(CNCCOCCOCCO)C(N)=O)cs3)nc2-c2csc(n2)[C@@H]2COC(=O)c3c4c5c(cccc5n3O)COC(=O)[C@@H](O[C@H]3C[C@](C)(O)[C@H](N(C)C)[C@H](C)O3)[C@@H](OC4)[C@H](NC(=O)c3csc1n3)c1nc(cs1)C(=O)N2 (stereo partly specified)	0.06 (≈ 0.0378 µM)	0.5 (≈ 0.315 µM)	0.25 (≈ 0.158 µM)	4.6	solubility thermodynamic [4]: > 3.1 mg/mL
COCCOCCOCCOCCN1CCN(CC(NC(=O)c2csc(-c3nc4c(cc3O)-c3nc(cs3)C(=O)N[C@@H]([C@@H](C)O)C(=O)N/C(=C(\C)OC)c3nc(cs3)C(=O)N[C@@H]3c5nc(cs5)C(=O)N[C@@H](COC(=O)c5c6c7c(cccc7n5O)COC(=O)[C@@H](O[C@H]5C[C@](C)(O)[C@H](N(C)C)[C@H](C)O5)[C@H]3OC6)c3nc-4cs3)n2)C(N)=O)CC1 (stereo partly specified)	0.25 (≈ 0.146 µM)	4 (≈ 2.33 µM)	0.5 (≈ 0.292 µM)	1.5	solubility thermodynamic [11]: > 1.5 mg/mL
C=C(NC(=O)c1csc(-c2nc3c(cc2O)-c2nc(cs2)C(=O)N[C@@H]([C@@H](C)O)C(=O)N/C(=C(\C)OC)c2nc(cs2)C(=O)N[C@@H]2c4nc(cs4)C(=O)N[C@@H](COC(=O)c4c5c6c(cccc6n4O)COC(=O)C(O[C@H]4C[C@](C)(O)[C@H](N(C)C)[C@H](C)O4)[C@H]2OC5)c2nc-3cs2)n1)C(N)=O (stereo partly specified)	0.001 (≈ 0.000696 µM)	0.03 (≈ 0.0209 µM)	0.007 (≈ 0.00487 µM)	0.8	solubility thermodynamic [12]: 0.34 mg/mL (≈ 237 µM)
CO/C(C)=C1/NC(=O)[C@H]([C@@H](C)O)NC(=O)c2csc(n2)-c2cc(O)c(-c3nc(C(=O)NC(CN4CCCC4)C(N)=O)cs3)nc2-c2csc(n2)[C@@H]2COC(=O)c3c4c5c(cccc5n3O)COC(=O)[C@@H](O[C@H]3C[C@](C)(O)[C@H](N(C)C)[C@H](C)O3)[C@@H](OC4)[C@H](NC(=O)c3csc1n3)c1nc(cs1)C(=O)N2 (stereo partly specified)	0.01 (≈ 0.00663 µM)	0.5 (≈ 0.331 µM)	0.06 (≈ 0.0398 µM)	2.5	solubility thermodynamic [13]: > 3 mg/mL
CO/C(C)=C1/NC(=O)[C@H]([C@@H](C)O)NC(=O)c2csc(n2)-c2cc(O)c(-c3nc(C(=O)NC(CN(C)CCN(C)C)C(N)=O)cs3)nc2-c2csc(n2)[C@@H]2COC(=O)c3c4c5c(cccc5n3O)COC(=O)[C@@H](O[C@H]3C[C@](C)(O)[C@H](N(C)C)[C@H](C)O3)[C@@H](OC4)[C@H](NC(=O)c3csc1n3)c1nc(cs1)C(=O)N2 (stereo partly specified)	0.007 (≈ 0.00455 µM)	0.5 (≈ 0.325 µM)	0.06 (≈ 0.039 µM)	3.3	solubility thermodynamic [13]: > 10 mg/mL
CNCC(NC(=O)c1csc(-c2nc3c(cc2O)-c2nc(cs2)C(=O)N[C@@H]([C@@H](C)O)C(=O)N/C(=C(\C)OC)c2nc(cs2)C(=O)N[C@@H]2c4nc(cs4)C(=O)N[C@@H](COC(=O)c4c5c6c(cccc6n4O)COC(=O)[C@@H](O[C@H]4C[C@](C)(O)[C@H](N(C)C)[C@H](C)O4)[C@H]2OC5)c2nc-3cs2)n1)C(N)=O (stereo partly specified)	0.001 (≈ 0.000681 µM)	8 (≈ 5.45 µM)	2 (≈ 1.36 µM)	1.6	solubility thermodynamic [13]: > 3.5 mg/mL
